ChEMBL document CHEMBL1201862, “PubChem BioAssay data set” (2004)
Active and inactive are the calls of the source.

Assays:
[1] = biological target: T1, Aminopeptidase N (Plasmodium falciparum FcB1/Columbia, UniProt O96935); experiment: malaria alanyl aminopeptidase activity blockers – biochemical, fluorogenic H-Leu-NHMec substrate, 1536-well (AID 1445); parameters: species or system Plasmodium falciparum 3D7, 3D7
T1 sequence (O96935 whole entry): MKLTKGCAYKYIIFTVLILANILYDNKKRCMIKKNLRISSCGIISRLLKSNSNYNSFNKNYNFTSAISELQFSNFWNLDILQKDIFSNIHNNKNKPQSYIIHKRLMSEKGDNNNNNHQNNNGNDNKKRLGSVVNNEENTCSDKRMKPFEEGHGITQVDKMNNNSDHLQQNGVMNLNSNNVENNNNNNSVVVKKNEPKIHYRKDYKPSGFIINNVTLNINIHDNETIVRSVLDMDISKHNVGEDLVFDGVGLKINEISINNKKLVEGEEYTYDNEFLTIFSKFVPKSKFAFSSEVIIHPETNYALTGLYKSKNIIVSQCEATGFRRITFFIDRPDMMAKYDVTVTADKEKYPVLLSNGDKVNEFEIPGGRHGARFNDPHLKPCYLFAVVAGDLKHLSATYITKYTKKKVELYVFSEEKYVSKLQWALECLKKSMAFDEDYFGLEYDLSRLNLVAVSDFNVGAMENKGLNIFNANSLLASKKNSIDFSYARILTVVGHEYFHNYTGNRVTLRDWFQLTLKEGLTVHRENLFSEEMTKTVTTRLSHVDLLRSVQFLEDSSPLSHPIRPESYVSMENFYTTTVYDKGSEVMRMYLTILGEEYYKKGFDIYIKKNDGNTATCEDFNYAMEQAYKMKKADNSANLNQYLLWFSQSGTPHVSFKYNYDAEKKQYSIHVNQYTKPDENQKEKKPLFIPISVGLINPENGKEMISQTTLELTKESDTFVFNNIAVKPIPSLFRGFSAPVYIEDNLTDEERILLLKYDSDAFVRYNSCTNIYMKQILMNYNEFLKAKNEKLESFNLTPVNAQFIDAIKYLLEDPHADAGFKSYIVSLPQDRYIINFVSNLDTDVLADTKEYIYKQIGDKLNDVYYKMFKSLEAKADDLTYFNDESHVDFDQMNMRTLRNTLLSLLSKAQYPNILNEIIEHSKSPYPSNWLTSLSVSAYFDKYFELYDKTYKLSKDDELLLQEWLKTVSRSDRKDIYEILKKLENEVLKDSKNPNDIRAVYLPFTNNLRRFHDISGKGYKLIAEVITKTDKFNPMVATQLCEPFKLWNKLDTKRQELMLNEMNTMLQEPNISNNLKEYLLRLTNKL

[2] = off-target signal loss in HeLa-CEM21 co-culture – HeLa F-luc CTL cells, cherry-picked, counter-screen for HIV-1 Env fusion inhibitor project, dose response (AID 652040); format: functional, cell-based;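 note: potency for signal decrease marking cytotoxic or nonspecific inhibition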
[3] = viability of HCT116 lacking mutant beta-catenin – cell-based, human colon tumor, dose response (AID 1045); format: functional;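 note: HCT116 colon tumor cells with beta catenin knocked out; cells exposed to compound for 60 hours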
[4] = viability of PTEN-deleted HCT116 cells – cell-based, HCT116 PTEN knockout, dose response (AID 1047); format: functional;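 note: HCT116 colon tumor cells with PTEN knocked out; cells exposed to compound for 60 hours before readout; potency for loss of cell viability measured by luminescence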
[5] = THP-1 cell cytotoxicity, dose response, cytotoxicity control for non-replicating M. tuberculosis project (AID 489025); format: functional
[6] = cells; format: functional
[7] = biological target: Heat shock protein HSP 90-alpha (Homo sapiens, UniProt P07900); format: functional, organism-based
[8] = microbe, parasite or virus in culture; format: functional; conditions: Mycobacterium tuberculosis
[9] = biological target: T2, Leucine aminopeptidase (Plasmodium falciparum 3D7, UniProt Q8IL11); experiment: P. falciparum M17LAP inhibitors, primary screen, biochemical, fluorogenic H-Leu-NHMec substrate, 1536-well (AID 1619); format: functional
T2 sequence (Q8IL11 whole entry): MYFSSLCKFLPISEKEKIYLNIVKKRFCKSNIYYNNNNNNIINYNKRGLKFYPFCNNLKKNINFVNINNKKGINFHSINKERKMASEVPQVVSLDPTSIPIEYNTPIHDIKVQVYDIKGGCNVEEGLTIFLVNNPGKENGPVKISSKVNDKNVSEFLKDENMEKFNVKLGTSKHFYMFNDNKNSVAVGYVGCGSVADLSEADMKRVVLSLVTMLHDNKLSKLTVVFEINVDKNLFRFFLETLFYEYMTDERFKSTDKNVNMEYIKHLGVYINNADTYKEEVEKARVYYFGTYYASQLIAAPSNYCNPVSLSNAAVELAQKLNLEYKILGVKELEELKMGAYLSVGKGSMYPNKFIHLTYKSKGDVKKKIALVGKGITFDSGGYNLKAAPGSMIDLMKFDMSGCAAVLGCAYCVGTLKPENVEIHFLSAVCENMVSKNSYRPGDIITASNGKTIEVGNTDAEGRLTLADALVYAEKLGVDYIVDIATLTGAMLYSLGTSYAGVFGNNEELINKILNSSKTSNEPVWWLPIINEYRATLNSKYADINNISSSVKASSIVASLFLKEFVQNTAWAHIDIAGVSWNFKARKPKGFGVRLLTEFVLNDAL

[10] = system: Streptococcus; experiment: GAS UMAA2166 growth inhibition – luminescence, BacTiterGlo, counter-screen for streptokinase expression inhibitor project, dose response (AID 1915); format: functional, organism-based;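 note: potency for reduction of bacterial viability or growth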
[11] = biological target: T3, Streptokinase A (Streptococcus pyogenes serotype M1, UniProt P10520); experiment: viability-normalized secreted streptokinase activity reduction – plasminogen activation absorbance, OD405, dose response (AID 1914); format: functional, Streptococcus pyogenes M1 GAS;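 note: secreted streptokinase activity via plasminogen activation per viability signal from cell pellet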
T3 sequence (P10520 whole entry): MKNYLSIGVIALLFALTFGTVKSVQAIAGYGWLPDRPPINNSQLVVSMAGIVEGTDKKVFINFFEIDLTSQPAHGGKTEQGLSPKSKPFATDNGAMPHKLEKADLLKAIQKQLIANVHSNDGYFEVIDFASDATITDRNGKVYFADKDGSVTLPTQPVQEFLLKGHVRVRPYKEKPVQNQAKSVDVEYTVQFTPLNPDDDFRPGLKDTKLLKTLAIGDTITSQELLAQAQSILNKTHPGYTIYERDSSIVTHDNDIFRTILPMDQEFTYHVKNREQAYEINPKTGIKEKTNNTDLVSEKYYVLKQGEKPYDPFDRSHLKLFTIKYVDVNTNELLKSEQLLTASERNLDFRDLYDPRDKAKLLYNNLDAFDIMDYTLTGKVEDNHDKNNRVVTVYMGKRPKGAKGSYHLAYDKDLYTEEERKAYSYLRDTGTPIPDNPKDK

[12] = system: Streptococcus sp. 'group A'; experiment: Streptococcus pyogenes SK(-)GAS viability under kanamycin – luminescence, BacTiterGlo, confirmation, counter-screen for streptokinase expression inhibitor project, dose response (AID 1900); format: functional, organism-based
[13] = HIV-1 AD8 envelope cell-cell fusion blockers – cherry-pick, dose response (AID 652062); format: functional, cell-based;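 note: luciferase signal from cell-cell fusion driven by HIV-1 clade B AD8 Env; potency is for inhibitors of fusion seen as a drop in luminescence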
[14] = blockers of HIV-1 envelope-mediated cell-cell fusion – cherry-pick, dose response (AID 652057); format: functional, cell-based

Question: Which IC50 [1] does the source give for CCOC(=O)CC1C(=O)NCCN1c1nc2c(C)cccn2c(=O)c1/C=C1\SC(=S)N(CC(C)C)C1=O (stereo not given) here?
Answer: 42.5 µM (active)

Question: For O=C(Nc1cccc(OC(=O)N2CCOCC2)c1)N1CCOCC1, which AC50 [2] is on record?
Answer: > 70 µM (inactive)

Question: Which EC50 [3] does the source give for CCCOc1ccc(-c2nc(C#N)c(NCCCn3ccnc3)o2)cc1 here?
Answer: 10.2 µM (active)

Question: And the EC50 [4]?
Answer: 61.8 µM (active)

Question: And the CC50 [5]?
Answer: 27.6 µM (active)

Question: What about the IC50 [6] of the same molecule?
Answer: 22.4 µM (active)

Question: With COc1ccc(NC2CCN(C3CC(=O)N(c4ccc(F)c(Cl)c4)C3=O)CC2)cc1 (stereo not given) as the molecule, how does the AC50 [7] read?
Answer: 4.11 µM (active)

Question: For O=C(Nc1nccs1)c1ccc(COc2ccc(Cl)cc2)o1, which CC50 [5] is on record?
Answer: > 40 µM (active)

Question: For CN(CC(=O)Nc1ccccc1Br)C(=O)c1cccnc1Nc1cccc(C(F)(F)F)c1, which CC50 [8] is on record?
Answer: 19.9 µM (active)

Question: With Cc1cccc(-c2ncc(CN3CCC(CO)(CCCc4ccccc4)CC3)cn2)c1 as the molecule, how does the CC50 [8] read?
Answer: > 40 µM (active)

Question: With O=c1oc2c(CN3CCOCC3)c(O)c(Cl)cc2c2c1CCC2 as the molecule, how does the IC50 [1] read?
Answer: 42.9 µM (active)

Question: For CCOC(=O)/C(=C/c1ccc(OC(=O)c2ccccc2)cc1)C(C)=O, which AC50 [7] is on record?
Answer: 2.06 µM (active)

Question: Which IC50 [1] does the source give for N#Cc1c(-c2ccccc2)nc(SCC(=O)N(c2ccccc2)c2ccccc2)[nH]c1=O here?
Answer: 34.3 µM (active)

Question: With CCOC(=O)C1=C(Nc2ccc(C)cc2)S/C(=C\c2ccc(OCC(=O)O)c(OCC)c2)C1=O as the molecule, how does the IC50 [1] read?
Answer: 48.6 µM (active)

Question: And the IC50 [9]?
Answer: 15.6 µM (active)

Question: For O=c1oc2c(CN3CCOCC3)c(O)c(Cl)cc2c2c1CCCC2, which IC50 [1] is on record?
Answer: 32.2 µM (active)

Question: For Cc1n[nH]c(C)c1CCOc1ccc(C(C)C)cc1, which EC50 [10] is on record?
Answer: 43.6 µM (active)

Question: And the EC50 [11]?
Answer: > 150 µM (not active)

Question: What about the CC50 [5] of the same molecule?
Answer: > 40 µM (active)

Question: And the IC50 [6]?
Answer: 12.2 µM (active)

Question: And the EC50 [12]?
Answer: 25.1 µM (active)

Question: With C(=NN=C1c2ccccc2-c2ccccc21)c1c[nH]c2ccccc12 as the molecule, how does the AC50 [7] read?
Answer: 5.17 µM (active)

Question: Which AC50 [13] does the source give for C[C@H]1CN([C@@H](C)CO)S(=O)(=O)c2ccc(C3=CCCC3)cc2O[C@H]1CN(C)Cc1ccccc1 here?
Answer: 25.1 µM (active)

Question: And the AC50 [14]?
Answer: 18.5 µM (active)

Question: For O=C/C(=N\Nc1cccc(C(F)(F)F)c1)C(=O)c1ccccc1, which AC50 [7] is on record?
Answer: 6.15 µM (active)
